US20120237503A1, “Screening Method and Therapy with Agonists of DDAH I” (UCL BUSINESS PLC, priority 2009, published 2012)
Entries after “also recorded” stand apart in the source; their conditions may differ.

What was measured:
BDL rats = assay: Direct portal pressure measurement in bile duct ligated (BDL) rats; format: in vivo, rat
Source text: (§1) These experiments utilised an established animal model of cirrhosis, the bile duct ligated (BDL) rat. BDL rats may be generated by methods known in the art. For example, male Sprague-Dawley rats (200-250 g) may be used for this procedure. Following anaesthetisation, a mid-line laparotamy may be performed, the bile duct exposed, triply ligated with 4.0 silk suture, and severed between the second and third ligature. The wound is then closed in layers with absorbable suture, and the animal allowed to recover in a quiet room before being returned to the animal storage facility.
Three groups of rats were used in these experiments, BDL rats treated with vehicle, BDL rats treated with the anti-TNF monoclonal antibody infliximab, and sham treated rats.
Four weeks after BDL or sham surgery in Sprague-Dawley rats (n=14), BDL rats were gavaged with 5 mg/kg of the FXR agonist INT-747 (6-ethyl chenodeoxycholic acid, Intercept Pharmaceuticals Inc.) in vehicle (corn oil) for 5 days or with vehicle alone.
(§2) After 5 days of treatment rats underwent direct portal pressure assessment and were then sacrificed, and plasma and liver tissue collected for analysis. eNOS activity was determined radiometrically by the conversion of labelled radioactive arginine to citrulline. Protein expression for eNOS, iNOS, DDAH-1, and DDAH-2 were measured by standard Western Blotting techniques. Liver biopsies were evaluated for histopathology with H+E, Van Giesen and reticulin stains.
This method, termed ‘hydrodynamic gene therapy’, was used to determine the effect of transduction of DDAH-1 in BDL rats on portal pressure.
A plasmid containing human DDAH-1 cDNA was injected via a branch of the jugular vein into BDL or sham rodents produced as above. A control plasmid containing GFP was used as a control for the intervention in BDL animals. The animals underwent direct portal pressure measurement at 48 hours post intervention and plasma and tissue was collected for analysis of liver DDAH-1 mRNA (rtPCR) and protein expression (western blotting), as well as routine histology and biochemistry.

eNOS = assay: Hepatic eNOS activity (conversion of labelled arginine to 14C-citrulline) in BDL rats; format: in vivo, rat; conditions: BDL rats + infliximab vs BDL vehicle and sham
Experimental: FIG. 1 reports on the 14C-citrulline counts per minute per milligram of protein. This is a measure of eNOS activity. Experiments were carried out in bile-duct ligated (BDL) or sham treated rats. The bile duct ligated rats were treated with either infliximab (BDL+infliximab) or a vehicle (BDL).
as §1, §2

ADMA = assay: Liver tissue ADMA concentration in BDL rats; format: in vivo, rat; conditions: BDL rats + infliximab vs BDL vehicle
Source text: as §1
ADMA, SDMA and arginine were measured using fragmentation specific stable isotope dilution electrospray tandem mass spectrometry. In brief, samples de-proteinized with deuterated ADMA, SDMA and arginine, were chromatographed (acetonitrile:water, 1:1, with 0.025% formic acid) on a Teicoplanin guard column 10 mm×2.1 mm ID (Chirobiotic T, ASTEC Ltd, Congleton, UK), and analysed using a SCIEX API4000 (Applied Biosystems, Warrington, UK) in positive ion multiple reaction monitoring mode.

DDAH-I = assay: Hepatic DDAH-I protein expression in BDL rats; format: in vivo, rat; conditions: BDL rats + infliximab vs BDL vehicle and sham
Source text: as §1
Extracts containing equal amounts of protein were denatured and separated on 4-12% NuPAGE Bis-Tris Gels and blotted on to PVDF membranes (Invitrogen, UK). […] The bands were visualized using an enhanced ECL detection kit and quantified by densitometry. Loading accuracy was evaluated via membrane rehybridization with antibodies against mouse and rabbit anti-α tubulin (1:1000; upstate and Cell Signaling Technology, respectively).
as §2, with “Liver biopsies were evaluated for histopathology with H+E, Van Giesen and reticulin stains.” left out

[1] = test system: patients with acute alcoholic hepatitis; conditions: systemic infliximab in association with prednisolone; cited from earlier work

Row | Compound | reduction in portal pressure (BDL rats; BDL rats, INT-747 5 mg/kg gavage for 5 days, compared to BDL+vehicle, p<0.01) [%] | portal pressure (BDL rats; BDL cirrhotic rats after infliximab, BDL 14±0.7, sham 5.5±0.3 mmHg) [mmHg] | reduction in portal pressure (BDL rats; BDL rats + infliximab compared with BDL rats (vehicle / iso-volumetric saline)) | reduction in portal pressure (BDL rats; BDL rats + infliximab compared with BDL rats (vehicle / iso-volumetric saline), listed as Infliximab) | eNOS activity (14C-citrulline counts per minute per milligram of protein) (eNOS) | ADMA levels in liver tissue (ADMA) | DDAH-I expression in liver (DDAH-I) | DDAH-I expression in liver (DDAH-I; listed as Infliximab) | severe infections [1]
1 | CC[C@H]1[C@@H](O)[C@@H]2[C@H](CC[C@]3(C)[C@@H]([C@H](C)CCC(=O)O)CC[C@@H]23)[C@@]2(C)CC[C@@H](O)C[C@@H]12 [INT-747, 6-ethyl chenodeoxycholic acid] | 30 | – | – | – | – | – | – | – | –
2 | infliximab: anti-TNF monoclonal antibody infliximab | – | 9.5±0.6 | greater than 33% | more than 30% | restores eNOS activity towards similar levels to those seen in the sham animals; also recorded: Increased | substantially reduced; also recorded: reduction | restored towards sham levels; also recorded: significant increase | restored towards sham levels | high level of severe infections
